Values quoted from earlier work in Sander's compilation of Henry's law constants (doi:10.1002/cite.330370802).

What was measured:
Settings in all cases: reference: Irmann (1965); cited value
[1] = Henry solubility constant Hcp at 294 K (mol/(m3 Pa))
[2] = Henry solubility constant Hcp at 293 K (mol/(m3 Pa))
[3] = Henry solubility constant Hcp at 298.15 K (mol/(m3 Pa))
[4] = Henry solubility constant Hcp at 303 K (mol/(m3 Pa))

Compound: FC(F)(F)C(F)(Cl)Cl [1,1-dichlorotetrafluoroethane]
- Henry solubility constant Hcp at 294 K [1]: 5.8e-06

Compound: CC(F)F [1,1-difluoroethane]
- Henry solubility constant Hcp at 294 K [1]: 0.00048

Compound: FC(F)(Cl)C(F)(F)Cl [1,2-dichlorotetrafluoroethane]
- Henry solubility constant Hcp at 293 K [2]: 8.1e-06

Compound: C=CC=C [1,3-butadiene]
- Henry solubility constant Hcp [3]: 0.00015

Compound: CC(F)(F)Cl [1-chloro-1,1-difluoroethane]
- Henry solubility constant Hcp at 294 K [1]: 0.00019

Compound: FC(F)(F)CCl [2-chloro-1,1,1-trifluoroethane]
- Henry solubility constant Hcp [3]: 0.00037

Compound: FC(F)(F)Br [bromotrifluoromethane]
- Henry solubility constant Hcp [3]: 2e-05

Compound: CCCl [chloroethane]
- Henry solubility constant Hcp [3]: 0.00063

Compound: FC(F)(F)C(F)(F)Cl [chloropentafluoroethane]
- Henry solubility constant Hcp [3]: 3.2e-06

Compound: FC(F)(F)Cl [chlorotrifluoromethane]
- Henry solubility constant Hcp [3]: 5.7e-06

Compound: FC(F)(Cl)Cl [dichlorodifluoromethane]
- Henry solubility constant Hcp [3]: 2.3e-05

Compound: FC(F)=C(F)F [tetrafluoroethene]
- Henry solubility constant Hcp at 303 K [4]: 9.8e-06

Compound: FC(F)(F)F [tetrafluoromethane]
- Henry solubility constant Hcp [3]: 1.9e-06

Compound: FC(F)F [trifluoromethane]
- Henry solubility constant Hcp [3]: 0.0001
